# Assay results taken from ChEMBL document CHEMBL1697781, “Assessment of the health effects of chemicals in humans: II. Construction of an adverse effects database for QSAR modeling” (Curr Drug Discov Technol, 2004).
# Columns and labels:
# Conditions in all cases: human; call rule not given here
# Hepatotoxicity [1] = test: FDA HLAED, serum glutamic oxaloacetic transaminase (SGOT) increase
# Hepatotoxicity [2] = test: FDA HLAED, lactate dehydrogenase (LDH) increase
# Hepatotoxicity [3] = test: FDA HLAED, alkaline phosphatase increase
# Hepatotoxicity [4] = test: FDA HLAED, serum glutamic pyruvic transaminase (SGPT) increase
# Hepatotoxicity [5] = test: FDA HLAED, gamma-glutamyl transferase (GGT) increase
# Hepatotoxicity [6] = test: FDA HLAED, liver enzyme composite activity
# Wherever GGT Increase - Index Value is given: reference of the scale not given here.
# Wherever LDH Increase - Index Value is given: reference of the scale not given here.
Compound,SGOT Increase - Activity Score (Hepatotoxicity [1]),SGOT Increase - Index Value (Hepatotoxicity [1]),SGOT Increase - Number of Reports (Hepatotoxicity [1]),LDH Increase - Activity Score (Hepatotoxicity [2]),LDH Increase - Index Value (Hepatotoxicity [2]),LDH Increase - Number of Reports (Hepatotoxicity [2]),Alkaline Phosphatase Increase - Activity Score (Hepatotoxicity [3]),Alkaline Phosphatase Increase - Index Value (Hepatotoxicity [3]),Alkaline Phosphatase Increase - Number of Reports (Hepatotoxicity [3]),SGPT Increase - Activity Score (Hepatotoxicity [4]),SGPT Increase - Index Value (Hepatotoxicity [4]),SGPT Increase - Number of Reports (Hepatotoxicity [4]),GGT Increase - Activity Score (Hepatotoxicity [5]),GGT Increase - Index Value (Hepatotoxicity [5]),GGT Increase - Number of Reports (Hepatotoxicity [5]),Composite Activity - Active (Hepatotoxicity [6]),Composite Activity - Marginal (Hepatotoxicity [6]),Composite Activity - Score (Hepatotoxicity [6]),other results
CC1(C)S[C@@H]2[C@H](NC(=O)[C@H](NC(=O)N3CCN(S(C)(=O)=O)C3=O)c3ccccc3)C(=O)N2[C@H]1C(=O)O [MEZLOCILLIN],Inactive,0,< 4,Inactive,0,< 4,Inactive,1.9,< 4,Inactive,0,< 4,Inactive,0,< 4,–,–,–,Composite Activity - Active (Hepatotoxicity [6]; Liver): 0; Composite Activity - Marginal (Hepatotoxicity [6]; Liver): 0; Composite Activity - Score (Hepatotoxicity [6]; Liver): Inactive
Cc1ncc2n1-c1ccc(Cl)cc1C(c1ccccc1F)=NC2 [MIDAZOLAM],Inactive,0.2,< 4,Inactive,0,< 4,Inactive,0.2,< 4,Inactive,0.2,< 4,Inactive,0,< 4,0,0,Inactive,–
COc1ccc(OC)c(C(O)CNC(=O)CN)c1 (stereo not drawn) [MIDODRINE],Inactive,0,< 4,Inactive,0,< 4,Inactive,0,< 4,Inactive,0,< 4,Inactive,0,< 4,0,0,Inactive,–
Nc1cc(N2CCCCC2)nc(N)[n+]1[O-] [MINOXIDIL],Inactive,0.9,>= 4,Inactive,0,< 4,Inactive,0.7,>= 4,Inactive,1.1,>= 4,Inactive,0.3,< 4,0,0,Inactive,–
CN1CCN2c3ncccc3Cc3ccccc3C2C1 (stereo not drawn) [MIRTAZAPINE],Marginally Active,3.6,>= 4,Inactive,0.9,< 4,Inactive,0.9,< 4,Active,6.4,>= 4,Marginally Active,3.6,< 4,1,2,Inactive,–
CCCCC(C)(O)C/C=C/[C@H]1[C@H](O)CC(=O)[C@@H]1CCCCCCC(=O)OC (stereo partly drawn) [MISOPROSTOL],Inactive,0.8,>= 4,Inactive,0.5,< 4,Inactive,0.8,>= 4,Inactive,0.2,< 4,Inactive,0.5,< 4,0,0,Inactive,–
